Data from the supplement of paper PMC10307832.

Legend:
Test in all cases: relative viability (nuclei count vs DMSO), 5 days (fraction); higher = more cells survive
[1] = test system: LK-2
Method in brief: (§1)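 Cells from lung cancer lines were seeded into 1536-well plates and, one day later, dosed by pin tool. Treatments were either a single drug or a fixed dose of an anchor drug with five library-drug doses (not always all listed) in √10 steps. After 5 days, nuclei were stained in a one-step fixation (final 0.05% Triton X-100, 1% formaldehyde, 1 ug/ml Hoechst) and counted on 4× images, and relative viability is the treated-to-vehicle nuclei ratio, as the median of duplicate plates.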

[2] = test system: NCI-H2347
Method in brief: as §1

[3] = test system: ABC-1
Method in brief: as §1

[4] = test system: NCI-H441
Method in brief: as §1

[5] = test system: NCI-H838
Method in brief: as §1

[6] = test system: LC-2-ad
Method in brief: as §1

[7] = test system: A-427
Method in brief: as §1

[8] = test system: HCC-15
Method in brief: as §1

[9] = test system: NCI-H1793
Method in brief: as §1

[10] = test system: NCI-H1944
Method in brief: as §1

[11] = test system: NCI-H647
Method in brief: as §1

[12] = test system: NCI-H2342
Method in brief: as §1

[13] = test system: NCI-H1915
Method in brief: as §1

[14] = test system: NCI-H322M
Method in brief: as §1

[15] = test system: RERF-LC-KJ
Method in brief: as §1

[16] = test system: EPLC-272H
Method in brief: as §1

[17] = test system: NCI-H1734
Method in brief: as §1

[18] = test system: NCI-H358
Method in brief: as §1

[19] = test system: NCI-H522
Method in brief: as §1

CN1CCN(CCOc2cc(OC3CCOCC3)c3c(Nc4c(Cl)ccc5c4OCO5)ncnc3c2)CC1 [Saracatinib] + NC(=O)Nc1cc(-c2cccc(F)c2)sc1C(=O)N[C@H]1CCCNC1 [AZD7762] (partner 0.2 µM)
relative viability ([1]; first compound 0.02 µM): 0.391
relative viability ([1]; first compound 0.2 µM): 0.219
relative viability ([1]; first compound 0.6325 µM): 0.262
relative viability ([1]; first compound 2 µM): 0.133
relative viability ([2]; first compound 0.02 µM): 0.828
relative viability ([2]; first compound 0.2 µM): 0.663
relative viability ([2]; first compound 0.6325 µM): 0.623
relative viability ([2]; first compound 2 µM): 0.657
relative viability ([3]; first compound 0.02 µM): 0.934
relative viability ([3]; first compound 0.2 µM): 0.825
relative viability ([3]; first compound 0.6325 µM): 0.908
relative viability ([3]; first compound 2 µM): 0.695
relative viability ([4]; first compound 0.02 µM): 1.06
relative viability ([4]; first compound 0.2 µM): 1.16
relative viability ([4]; first compound 0.6325 µM): 1.2
relative viability ([4]; first compound 2 µM): 1.03
relative viability ([5]; first compound 0.02 µM): 0.957
relative viability ([5]; first compound 0.2 µM): 0.886
relative viability ([5]; first compound 0.6325 µM): 0.989
relative viability ([5]; first compound 2 µM): 0.852
relative viability ([6]; first compound 0.02 µM): 0.841
relative viability ([6]; first compound 0.2 µM): 0.778
relative viability ([6]; first compound 0.6325 µM): 0.835
relative viability ([6]; first compound 2 µM): 0.726
relative viability ([7]; first compound 0.02 µM): 0.759
relative viability ([7]; first compound 0.2 µM): 0.636
relative viability ([7]; first compound 0.6325 µM): 0.611
relative viability ([7]; first compound 2 µM): 0.569
relative viability ([8]; first compound 0.02 µM): 1.29
relative viability ([8]; first compound 0.2 µM): 0.874
relative viability ([8]; first compound 0.6325 µM): 1.14
relative viability ([8]; first compound 2 µM): 1.21
relative viability ([9]; first compound 0.02 µM): 0.304
relative viability ([9]; first compound 0.2 µM): 0.233
relative viability ([9]; first compound 0.6325 µM): 0.312
relative viability ([9]; first compound 2 µM): 0.26
relative viability ([10]; first compound 0.02 µM): 0.476
relative viability ([10]; first compound 0.2 µM): 0.413
relative viability ([10]; first compound 0.6325 µM): 0.528
relative viability ([10]; first compound 2 µM): 0.404
relative viability ([11]; first compound 0.02 µM): 0.564
relative viability ([11]; first compound 0.2 µM): 0.509
relative viability ([11]; first compound 0.6325 µM): 0.507
relative viability ([11]; first compound 2 µM): 0.354
relative viability ([12]; first compound 0.02 µM): 0.721
relative viability ([12]; first compound 0.2 µM): 0.471
relative viability ([12]; first compound 0.6325 µM): 0.562
relative viability ([12]; first compound 2 µM): 0.515
relative viability ([13]; first compound 0.02 µM): 0.632
relative viability ([13]; first compound 0.2 µM): 0.639
relative viability ([13]; first compound 0.6325 µM): 0.684
relative viability ([13]; first compound 2 µM): 0.696
relative viability ([14]; first compound 0.02 µM): 0.593
relative viability ([14]; first compound 0.2 µM): 0.498
relative viability ([14]; first compound 0.6325 µM): 0.552
relative viability ([14]; first compound 2 µM): 0.353
relative viability ([15]; first compound 0.02 µM): 1.13
relative viability ([15]; first compound 0.2 µM): 0.971
relative viability ([15]; first compound 2 µM): 1
relative viability ([16]; first compound 0.02 µM): 0.203
relative viability ([16]; first compound 0.2 µM): 0.229
relative viability ([16]; first compound 0.6325 µM): 0.18
relative viability ([16]; first compound 2 µM): 0.245
relative viability ([17]; first compound 0.02 µM): 0.537
relative viability ([17]; first compound 0.6325 µM): 0.622
relative viability ([17]; first compound 2 µM): 0.566
relative viability ([18]; first compound 0.02 µM): 0.668
relative viability ([18]; first compound 0.2 µM): 0.418
relative viability ([18]; first compound 0.6325 µM): 0.364
relative viability ([18]; first compound 2 µM): 0.318
relative viability ([19]; first compound 0.02 µM): 0.961
relative viability ([19]; first compound 0.2 µM): 0.809
relative viability ([19]; first compound 0.6325 µM): 0.807
relative viability ([19]; first compound 2 µM): 0.822
